The source of these data is patent publication US9169254B2, “Spiroimidazolone derivative” (Chugai Seiyaku Kabushiki Kaisha, priority 2009, dated 2015).

For the assay, the target named is T1, human PTH1 receptor (Homo sapiens, UniProt Q03431).
T1 sequence (Q03431 27-593): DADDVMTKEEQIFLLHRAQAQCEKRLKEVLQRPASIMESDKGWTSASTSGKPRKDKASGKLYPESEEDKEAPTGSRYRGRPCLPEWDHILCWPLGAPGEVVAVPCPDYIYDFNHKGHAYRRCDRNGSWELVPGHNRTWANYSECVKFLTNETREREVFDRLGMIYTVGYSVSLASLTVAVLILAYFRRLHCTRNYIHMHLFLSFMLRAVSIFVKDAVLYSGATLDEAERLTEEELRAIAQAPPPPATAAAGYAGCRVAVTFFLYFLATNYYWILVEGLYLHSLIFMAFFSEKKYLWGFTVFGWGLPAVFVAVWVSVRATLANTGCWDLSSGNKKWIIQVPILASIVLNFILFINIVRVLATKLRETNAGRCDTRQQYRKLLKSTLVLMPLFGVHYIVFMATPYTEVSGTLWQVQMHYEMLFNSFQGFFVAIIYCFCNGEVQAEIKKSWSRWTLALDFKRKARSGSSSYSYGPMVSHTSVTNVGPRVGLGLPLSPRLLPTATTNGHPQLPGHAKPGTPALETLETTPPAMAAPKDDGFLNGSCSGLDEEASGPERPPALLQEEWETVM
Description: In vitro cAMP signal activity in HKRK-B7 cells (LLC-PK1 cells overexpressing the human PTH1 receptor). The note with it: HKRK-B7 cells; compound at 1×10^−3 M; cAMP produced as percentage of that produced by hPTH(1-34) at 100 nM. It counts as cell-based.

Consider `Cc1cc(N(C)C(N)=O)cc(C)c1CCS(=O)(=O)N1CCC2(CC1)N=C(c1ccc3c(c1)OC(F)(F)O3)NC2=O` [Compound 1029, 1-(4-{2-[2-(2,2-difluoro-benzo[1,3]dioxol-5-yl)-4-oxo-1,3,8-triaza-spiro[4.5]dec-1-ene-8-sulfonyl]-ethyl}-3,5-dimethyl-phenyl)-1-methyl-urea], for which the “cAMP production activity (%)” value came to 104%. The same measure for `CCCC(CCC)C1=NC2(CCN(S(=O)(=O)CCc3c(C)cc(N(C)C(N)=O)cc3C)CC2)C(=O)N1` [Compound 1041, 1-(3,5-dimethyl-4-{2-[4-oxo-2-(1-propyl-butyl)-1,3,8-triaza-spiro[4.5]dec-1-ene-8-sulfonyl]-ethyl}-phenyl)-1-methyl-urea]: 38%; for `Cc1cc(C(=O)N2CC(O)C2)cc(C)c1/C=C/S(=O)(=O)N1CCC2(CC1)N=C(c1cccc(C(F)(F)F)c1)NC2=O` [Compound 385, 8-{(E)-2-[4-(3-hydroxy-azetidine-1-carbonyl)-2,6-dimethyl-phenyl]-ethenesulfonyl}-2-(3-trifluoromethyl-phenyl)-1,3,8-triaza-spiro[4.5]dec-1-en-4-one]: 94%; for `Cc1cc(N2C(=O)CC[C@@H]2CN(C)C)cc(C)c1/C=C/S(=O)(=O)N1CCC2(CC1)N=C(c1cccc(OC(F)(F)F)c1)NC2=O` [Compound 611, 8-{(E)-2-[4-((R)-2-dimethylaminomethyl-5-oxo-pyrrolidin-1-yl)-2,6-dimethyl-phenyl]-ethenesulfonyl}-2-(3-trifluoromethoxy-phenyl)-1,3,8-triaza-spiro[4.5]dec-1-en-4-one]: 82%.

With `CC(=O)N1CCN(C(=O)c2cc(C)c(/C=C/S(=O)(=O)N3CCC4(CC3)N=C(c3cccc(OC(F)(F)F)c3)NC4=O)c(C)c2)CC1` [Compound 394, 8-{(E)-2-[4-(4-Acetyl-piperazine-1-carbonyl)-2,6-dimethyl-phenyl]-ethenesulfonyl}-2-(3-trifluoromethoxy-phenyl)-1,3,8-triaza-spiro[4.5]dec-1-en-4-one], the “cAMP production activity (%)” value was found to be 59%. With `O=C1NC(c2ccc(C(F)(F)F)cc2)=NC12CCN(S(=O)(=O)c1cccc(Cl)c1)CC2` [Compound 12, 8-(3-chloro-benzenesulfonyl)-2-(4-trifluoromethyl-phenyl)-1,3,8-triaza-spiro[4.5]dec-1-en-4-one], the “cAMP production activity (%)” value is on record as 12%. The same measure for `Cc1cc(N2C(=O)NC(COC(C)(C)C)C2=O)cc(C)c1/C=C/S(=O)(=O)N1CCC2(CC1)N=C([C@H]1CC[C@H](C)CC1)NC2=O` (stereo partly drawn) [Compound 589, 5-tert-butoxymethyl-3-(3,5-dimethyl-4-{(E)-2-[2-(4-methyl-cyclohexyl)-4-oxo-1,3,8-triaza-spiro[4.5]dec-1-ene-8-sulfonyl]-vinyl}-phenyl)-imidazolidine-2,4-dione]: 22%; for `Cc1cc(N2CCN(C(=O)OC(C)(C)C)CC2=O)ccc1/C=C/S(=O)(=O)N1CCC2(CC1)N=C(C1CCC(C)CC1)NC2=O` (stereo not drawn) [Compound 578, 4-(3-methyl-4-{(E)-2-[2-(4-methyl-cyclohexyl)-4-oxo-1,3,8-triaza-spiro[4.5]dec-1-ene-8-sulfonyl]-vinyl}-phenyl)-3-oxo-piperazine-1-carboxylic acid tert-butyl ester]: 13%; for `Cc1cc(C(=O)N(C)C)ccc1CCS(=O)(=O)N1CCC2(CC1)N=C(c1cscn1)NC2=O` [Compound 121, 3,N,N-trimethyl-4-[2-(4-oxo-2-thiazol-4-yl-1,3,8-triaza-spiro[4.5]dec-1-ene-8-sulfonyl)-ethyl]-benzamide]: 5.8%. The same measure for `CCCCOC1CCC(C2=NC3(CCN(S(=O)(=O)CCc4ccc(NC(C)=O)cc4C)CC3)C(=O)N2)CC1` (stereo not drawn) [Compound 912, N-(4-{2-[2-(4-butoxy-cyclohexyl)-4-oxo-1,3,8-triaza-spiro[4.5]dec-1-ene-8-sulfonyl]-ethyl}-3-methyl-phenyl)-acetamide]: 98%; for `O=C1NC(c2ccc(Cl)cc2Cl)=NC12CCN(S(=O)(=O)CCc1cccc3ccccc13)CC2` [Compound 47, 2-(2,4-dichloro-phenyl)-8-(2-naphthalen-1-yl-ethanesulfonyl)-1,3,8-triaza-spiro[4.5]dec-1-en-4-one]: 45%; for `CCCCCC#CCCC1=NC2(CCN(S(=O)(=O)/C=C/c3c(C)cc(N(C)C(N)=O)cc3C)CC2)C(=O)N1` [Compound 1025, 1-{3,5-dimethyl-4-[(E)-2-(2-non-3-ynyl-4-oxo-1,3,8-triaza-spiro[4.5]dec-1-ene-8-sulfonyl)-vinyl]-phenyl}-1-methyl-urea]: 114%.

For `O=C1NC(C2CCCCC2)=NC12CCN(S(=O)(=O)CCCc1ccccc1O)CC2` [Compound 318, 2-cyclohexyl-8-[3-(2-hydroxy-phenyl)-propane-1-sulfonyl]-1,3,8-triaza-spiro[4.5]dec-1-en-4-one], the “cAMP production activity (%)” value came out at 52%. Then `[2H]C([2H])([2H])C1([2H])CCC(C2=NC3(CCN(S(=O)(=O)CCc4c(C)cc(N(C)C(N)=O)cc4C)CC3)C(=O)N2)CC1` (stereo not drawn) [Compound 1364, 1-(3,5-dimethyl-4-{2-[2-(4-[1,1,1-^2H3]-methyl-[4-^2H1]cyclohexyl)-4-oxo-1,3,8-triaza-spiro[4.5]dec-1-ene-8-sulfonyl]-ethyl}-phenyl)-1-methyl-urea], with 84%; and `Cc1cc(N(C)C(N)=O)cc(C)c1CCS(=O)(=O)N1CCC2(CC1)N=C(c1ccc(CCCC(F)(F)F)cc1)NC2=O` [Compound 1358, 1-[3,5-dimethyl-4-(2-{4-oxo-2-[4-(4,4,4-trifluoro-butyl)-phenyl]-1,3,8-triaza-spiro[4.5]dec-1-ene-8-sulfonyl}-ethyl)-phenyl]-1-methyl-urea], with 153%; and `Cc1cc(S(=O)(=O)Nc2ccncc2)ccc1/C=C/S(=O)(=O)N1CCC2(CC1)N=C(c1cccc(OC(F)(F)F)c1)NC2=O` [Compound 530, 3-methyl-4-{(E)-2-[4-oxo-2-(3-trifluoromethoxy-phenyl)-1,3,8-triaza-spiro[4.5]dec-1-ene-8-sulfonyl]-vinyl}-N-pyridin-4-yl-benzenesulfonamide], with 18%. The same measure for `Cc1cc(N(C)C(N)=O)cc(C)c1CCS(=O)(=O)N1CCC2(CC1)N=C(C1C[C@@H](C)[C@@H](C)C1)NC2=O` (stereo partly drawn) [Compound 1051, 1-(4-{2-[2-(cis-3,4-dimethyl-cyclopentyl)-4-oxo-1,3,8-triaza-spiro[4.5]dec-1-ene-8-sulfonyl]-ethyl}-3,5-dimethyl-phenyl)-1-methyl-urea]: 85%; for `Cc1cc(N(C)C(N)=O)cc(C)c1CCS(=O)(=O)N1CCC2(CC1)N=C(CCCCCCCCCN)NC2=O` [Compound 1324, 1-(4-{2-[2-(9-Amino-nonyl)-4-oxo-1,3,8-triaza-spiro[4.5]dec-1-ene-8-sulfonyl]-ethyl}-3,5-dimethyl-phenyl)-1-methyl-urea]: 1.0%. Then `O=C1NC(C2CCCCC2)=NC12CCN(S(=O)(=O)c1cc3ccccc3s1)CC2` [Compound 54, 8-(benzo[b]thiophene-2-sulfonyl)-2-cyclohexyl-1,3,8-triaza-spiro[4.5]dec-1-en-4-one], with 35%; and `COCCCCCCCC1=NC2(CCN(S(=O)(=O)CCc3c(C)cc(N(C)C(N)=O)cc3C)CC2)C(=O)N1` [Compound 1351, 1-(4-{2-[2-(7-methoxy-heptyl)-4-oxo-1,3,8-triaza-spiro[4.5]dec-1-ene-8-sulfonyl]-ethyl}-3,5-dimethyl-phenyl)-1-methyl-urea], with 100%; and `CC(=O)Nc1ccc(/C=C/S(=O)(=O)N2CCC3(CC2)N=C(c2cccc(C(F)(F)F)c2)NC3=O)c(C)c1` [Compound 215, N-(3-Methyl-4-{(E)-2-[4-oxo-2-(3-trifluoromethyl-phenyl)-1,3,8-triaza-spiro[4.5]dec-1-ene-8-sulfonyl]-vinyl}-phenyl)-acetamide], with 81%. With `Cc1cc(C(=O)N2CC(O)C2)cc(C)c1CCS(=O)(=O)N1CCC2(CC1)N=C(c1ccc(F)c(OC(F)(F)F)c1)NC2=O` [Compound 1337, 2-(4-fluoro-3-trifluoromethoxy-phenyl)-8-{2-[4-(3-hydroxy-azetidine-1-carbonyl)-2,6-dimethyl-phenyl]-ethanesulfonyl}-1,3,8-triaza-spiro[4.5]dec-1-en-4-one], the “cAMP production activity (%)” value amounted to 44%. The same measure for `CC(C)(C)NC(=O)N1CCCC(C2=NC3(CCN(S(=O)(=O)c4cccc(Cl)c4)CC3)C(=O)N2)C1` (stereo not drawn) [Compound 454, 3-[8-(3-Chloro-benzenesulfonyl)-4-oxo-1,3,8-triaza-spiro[4.5]dec-1-en-2-yl]-piperidine-1-carboxylic acid tert-butylamide]: 19%. Then `O=C1NC(c2cccc(OC(F)(F)F)c2)=NC12CCN(S(=O)(=O)/C=C/c1ccc3c(ccn3C[C@H](O)CO)c1)CC2` [Compound 597, 8-{(E)-2-[1-((S)-2,3-dihydroxy-propyl)-1H-indol-5-yl]-ethenesulfonyl}-2-(3-trifluoromethoxy-phenyl)-1,3,8-triaza-spiro[4.5]dec-1-en-4-one], with 51%.
